Measured values as given in US20210239681A1, “COMPOSITIONS AND METHODS FOR […] OF […]-BASED IMMUNOTHERAPEUTICS” (ADVAXIS, INC., priority 2018, published 2021).

Experiments:
Format in all cases: cell-based, human
THP-1 cells [1] = assay: Cytokine production by THP-1 in the absence of T cells; settings: Without gentamicin; Listeria MOI of 10; optical density
PBMC = assay: Cytokine release by donor PBMC cultured with peptide; set-up: unit not given beside the values; settings: release on antigen
Description: Peripheral blood mononuclear cells (PBMCs) samples were collected from three human HLA-A*02:01 donors: 358, 213, and 224. The peripheral blood mononuclear cells (PBMCs) were cultured with one of two E7 peptides: […] (9mer or 1T; SEQ ID NO: 100) or […] (10mer or 2T; SEQ ID NO: 101). After 10 days culture, the PBMCs were tested for E7 peptide binding staining and cytokine release.

THP-1 cells [2] = assay: Cytokine production by THP-1 in the absence of T cells; set-up: IL-6: unit not given here
Description: (§1) Analysis Kits and Reagents: Analysis of cytokine concentrations in culture medium used the U-plex assay kits from Meso Scale Discovery. Expression of T cell receptors specific for E7 peptide bound to HLA-A*02:01 was detected using HLA-A*02:01/peptide tetramers from MBL International (Woburn, Mass.).
Infection of THP-1: The THP-1 cell line was infected with either ADXS11-001 or XFL7 by incubating 10^6 cells with dilutions of bacteria in a 1 mL volume of RPMI 1640 10% FBS. […] After incubation with gentamicin the cells were washed again and resuspended to the desired cell concentration.
(§2) T cell cytokine expression analysis. An initial experiment using THP-1 as antigen presenting cells was performed using a T cell culture containing 6% E7 (11-20) specific T cells based upon staining with HLA-A*02:01/peptide tetramer. THP-1 cells were infected as described using two different concentrations of bacteria and then co-cultured with the T cells. Controls included uninfected THP-1 cells and THP-1 cells incubated with (exposed to) either the 9mer or 10mer peptide for one hour. After an overnight co-culture, medium was collected for analysis of cytokines.
To further explore the importance of the overnight incubation of infected THP-1, THP-1 cells infected overnight were compared to THP-1 cells infected for 2 hours. T cells specific for 9mer and 10mer peptides were co-cultured with each of the THP-1 cells and with uninfected or peptide exposed THP-1. As before, medium was collected after an overnight co-culture and cytokines were measured.
Titration studies with different multiplicity of infection (MOI). THP cells were infected for 2 hours with 3 different dilutions (MOI) of Listeria. Infected or uninfected THP cells were then cultured overnight for 24 hours before co-culturing the T cells. Cells were co-cultured overnight before cytokine analysis.

[3] = system: E7 (11-20) specific T cells; assay: Initial THP-1 / T cell co-culture cytokine production (T cell culture with 6% E7 (11-20) specific T cells); set-up: IFNγ / TNF-α / IL-10 / IL-12p70 / IL-13 / IL-1β / IL-2 / IL-4 / IL-6 / IL-8: unit not given here
Description: as §1
Infection of THP-1: The THP-1 cell line was infected with either ADXS11-001 or XFL7 by incubating 10^6 cells with dilutions of bacteria in a 1 mL volume of RPMI 1640 10% FBS. Incubation with bacteria was at 37° C., 5% CO2 for the indicated times, then extracellular bacteria were eliminated by washing and incubation in the presence of 50 μg/mL gentamicin for 1 hour at 37° C. After incubation with gentamicin the cells were washed again and resuspended to the desired cell concentration.
as §2

T cells = assay: Intracellular cytokine staining of T cells; settings: Brefeldin A, FIG. 9
Description: To identify cytokines that can be used to measure potency of a Listeria-based therapeutic the following tests were performed. Intracellular cytokine staining was used to detect T cells specificity. THP-1 were incubated with peptide overnight, mixed with T cells from above and centrifuged. The collected cells were then co-cultured at 37° C. for 1 hour. Brefeldin A was then added and the cells were co-cultured for another 4 hours. Brefeldin A inhibits secretion and permits analysis by flow cytometry. Cell were then stained to identify dead cells and CD8+ cells. The cell were then fixed and stained for IFNγ (using fix and permeabilization buffer from eBioscience/Invitrogen).

[4] = Cytokine secretion by THP-1 after infection or + E7 peptide (No T cells), mean of triplicate
[5] = THP-1 + peptide, THP-1 cell alone
[6] = THP-1 + peptide, THP-1 cells only
[7] = THP-1 incubated with peptide, absence of T cells
[8] = T cells and THP-1 incubated with peptide one hour, overnight co-culture

YMLDLQPETT [10mer]
IFNγ production, THP-1 alone (THP-1 cells [1]): 0.062
IFNγ Mean (PBMC; donor 213 PBMC cultured with 1T peptide): 86.6
IFNγ Mean (PBMC; donor 358 PBMC stimulated with 1T): 183.9
IFNγ Mean (PBMC; donor 358 PBMC stimulated with 2T): 359.8
IFNγ production, THP-1 alone (THP-1 cells [2]; 50 μg/mL gentamicin, Listeria MOI of 10, optical density): 0.058
IFNγ (THP-1 cells [2]; [4]): 36.7 pg/mL
IL-1β (THP-1 cells [2]; [4]): 0.2 pg/mL
IL-2 (THP-1 cells [2]; [4]): 4.6 pg/mL
IL-4 (THP-1 cells [2]; [4]): 0.6 pg/mL
IL-5 (THP-1 cells [2]; [4]): <LLOD
IL-8 (THP-1 cells [2]; [4]): 11.8 pg/mL
IL-10 (THP-1 cells [2]; [4]): 0.4 pg/mL
IL-12p70 (THP-1 cells [2]; [4]): 0.3 pg/mL
IL-13 (THP-1 cells [2]; [4]): <LLOD
TNF-α (THP-1 cells [2]; [4]): 15.5 pg/mL
IFNγ (THP-1 cells [2]; [5]): 9
IL-1β (THP-1 cells [2]; [5]): 0
IL-6 (THP-1 cells [2]; [5]): <LLOD
TNF-α (THP-1 cells [2]; [5]): <LLOD
IFNγ (THP-1 cells [2]; [6]): 1
IL-1β (THP-1 cells [2]; [6]): 0
IL-6 (THP-1 cells [2]; [6]): 6
TNF-α (THP-1 cells [2]; [6]): 104
IFNγ (THP-1 cells [2]; THP-1 alone, peptide exposed): <LLOD
IL-1β (THP-1 cells [2]; THP-1 alone, peptide exposed): <LLOD
IL-2 (THP-1 cells [2]; THP-1 alone, peptide exposed): <LLOD
IL-5 (THP-1 cells [2]; THP-1 alone, peptide exposed): <LLOD
IL-6 (THP-1 cells [2]; THP-1 alone, peptide exposed): <LLOD
IL-10 (THP-1 cells [2]; THP-1 alone, peptide exposed): <LLOD
IL-12p70 (THP-1 cells [2]; THP-1 alone, peptide exposed): <LLOD
IL-13 (THP-1 cells [2]; THP-1 alone, peptide exposed): <LLOD
TNF-α (THP-1 cells [2]; THP-1 alone, peptide exposed): 0
IFNγ (THP-1 cells [2]; [7]): <LLOD
IL-1β (THP-1 cells [2]; [7]): 0.1
IL-2 (THP-1 cells [2]; [7]): <LLOD
IL-4 (THP-1 cells [2]; [7]): <LLOD
IL-6 (THP-1 cells [2]; [7]): <LLOD
IL-8 (THP-1 cells [2]; [7]): 8.1
IL-10 (THP-1 cells [2]; [7]): <LLOD
IL-12p70 (THP-1 cells [2]; [7]): <LLOD
IL-13 (THP-1 cells [2]; [7]): <LLOD
TNF-α (THP-1 cells [2]; [7]): <LLOD
IFNγ [3, 8]: 17140.7
IL-1β [3, 8]: 7.0
IL-2 [3, 8]: 315.2
IL-4 [3, 8]: 11.9
IL-6 [3, 8]: 19.6
IL-8 [3, 8]: 6099.7
IL-10 [3, 8]: 34.0
IL-12p70 [3, 8]: 7.4
IL-13 [3, 8]: 508.4
TNF-α [3, 8]: 1192.3
T cell cytokine response to peptide presented by THP-1 ([3]; relative to T cells co-cultured with control or uninfected THP-1 cells): elevated levels of IFNγ, IL-13, IL-2, IL-8 and TNFα
IFNγ in T cells after stimulation with peptide (T cells): higher levels of IFNγ
